{"source": "patent US20260069588A1", "about": "“VEPDEGESTRANT FOR USE IN TREATING CANCER” (Arvinas Operation, Inc., priority 2022, published 2026)", "key": {"[1]": {"assay": "FIH Study Part B dose expansion (VERITAC): adverse events"}, "[2]": {"assay": "Plasma protein binding, human", "format": "in vitro ADME", "settings": "read-out: free fraction"}, "[3]": {"system": "ER+/HER2− locally advanced or metastatic breast cancer", "assay": "FIH Study Part A: clinical activity (CBR, ORR)", "format": "in vivo, human", "excerpt": "Based on a 6 Jun. 2023 data cut-off, evidence of preliminary clinical activity was observed, as assessed by CBR and ORR, in the monotherapy Part A dose escalation cohort of the FIH Study.\nPer protocol, the CBR evaluable analysis set included all treated patients who were enrolled at least 24 weeks prior to the data cut-off of analysis. CBR was defined as a confirmed CR or PR per RECIST v1.1 or SD with a minimum duration of 24 weeks.\nPer protocol, the response-evaluable analysis set included all treated patients who had measurable disease at baseline and ORR was based on confirmed responses per RECIST v1.1."}, "[4]": {"assay": "Caco-2 bidirectional permeability", "format": "in vitro ADME", "settings": "human, Caco-2, 1.125 pM"}, "[5]": {"system": "Caco-2 cells", "assay": "Caco-2 bidirectional permeability", "format": "in vitro ADME", "settings": "11.25 μM"}, "[6]": {"system": "BALB/c 3T3 mouse fibroblasts", "assay": "In vitro 3T3 phototoxicity", "format": "cell-based"}, "[7]": {"settings": "200 mg QD n=35, Nov. 1, 2022, grade 1/2"}}, "data": [{"smiles": "O=C1CC[C@H](N2Cc3cc(N4CCN(CC5CCN(c6ccc([C@@H]7c8ccc(O)cc8CC[C@@H]7c7ccccc7)cc6)CC5)CC4)ccc3C2=O)C(=O)N1", "note": "[Compound A, (S)-3-(5-(4-((1-(4-((1R,2S)-6-hydroxy-2-phenyl-1,2,3,4-tetrahydronaphthalen-1-yl)phenyl)piperidin-4-yl)methyl)piperazin-1-yl)-1-oxoisoindolin-2-yl)piperidine-2,6-dione]", "values": [{"measurement": "TRAE Arthralgia", "setting": "[1]; [7]", "result": 11, "unit": "%"}, {"measurement": "TRAE Fatigue", "setting": "[1]; [7]", "result": 40, "unit": "%"}, {"measurement": "TRAE Nausea", "setting": "[1]; [7]", "result": 14, "unit": "%"}, {"measurement": "TRAE hot flush", "setting": "[1]; [7]", "result": 17, "unit": "%"}, {"measurement": "TRAE increased aspartate aminotransferase", "setting": "[1]; [7]", "result": 11, "unit": "%"}, {"measurement": "Grade 5 TRAEs", "setting": "[1]; 6 Jun 2023", "result": "no Grade 5 TRAEs"}, {"measurement": "Grade 1 TEAEs", "setting": "[1]; 6 Jun 2023, N=71", "result": 22.5, "unit": "%"}, {"measurement": "Grade 1 TRAEs", "setting": "[1]; 6 Jun 2023, N=71", "result": 29.6, "unit": "%"}, {"measurement": "Grade 2 TEAEs", "setting": "[1]; 6 Jun 2023, N=71", "result": 33.8, "unit": "%"}, {"measurement": "Grade 2 TRAEs", "setting": "[1]; 6 Jun 2023, N=71", "result": 38.0, "unit": "%"}, {"measurement": "Grade 3 TEAEs", "setting": "[1]; 6 Jun 2023, N=71", "result": 28.2, "unit": "%"}, {"measurement": "Grade 3 TRAE electrocardiogram QT prolonged", "setting": "[1]; 6 Jun 2023, N=71", "result": 1.4, "unit": "%"}, {"measurement": "Grade 4 TEAEs", "setting": "[1]; 6 Jun 2023, N=71", "result": 2.8, "unit": "%"}, {"measurement": "Grade 5 TEAE", "setting": "[1]; 6 Jun 2023, N=71", "result": 1.4, "unit": "%"}, {"measurement": "TEAE Arthralgia", "setting": "[1]; 6 Jun 2023, N=71", "result": 21.1, "unit": "%"}, {"measurement": "TEAE Aspartate aminotransferase increased", "setting": "[1]; 6 Jun 2023, N=71", "result": 12.7, "unit": "%"}, {"measurement": "TEAE Back pain", "setting": "[1]; 6 Jun 2023, N=71", "result": 11.3, "unit": "%"}, {"measurement": "TEAE Constipation", "setting": "[1]; 6 Jun 2023, N=71", "result": 19.7, "unit": "%"}, {"measurement": "TEAE Decreased appetite", "setting": "[1]; 6 Jun 2023, N=71", "result": 15.5, "unit": "%"}, {"measurement": "TEAE Headache", "setting": "[1]; 6 Jun 2023, N=71", "result": 11.3, "unit": "%"}, {"measurement": "TEAE Nausea", "setting": "[1]; 6 Jun 2023, N=71", "result": 26.8, "unit": "%"}, {"measurement": "TEAE anemia", "setting": "[1]; 6 Jun 2023, N=71", "result": 14.1, "unit": "%"}, {"measurement": "TEAE hot flush", "setting": "[1]; 6 Jun 2023, N=71", "result": 14.1, "unit": "%"}, {"measurement": "TRAE Arthralgia", "setting": "[1]; 6 Jun 2023, N=71", "result": 14.1, "unit": "%"}, {"measurement": "TRAE Fatigue", "setting": "[1]; 6 Jun 2023, N=71", "result": 36.6, "unit": "%"}, {"measurement": "TRAE Nausea", "setting": "[1]; 6 Jun 2023, N=71", "result": 21.1, "unit": "%"}, {"measurement": "TRAE hot flush", "setting": "[1]; 6 Jun 2023, N=71", "result": 12.7, "unit": "%"}, {"measurement": "patients with TRAEs of Grade ≥3", "setting": "[1]; 6 Jun 2023, N=71", "result": 7.0, "unit": "%"}, {"measurement": "patients with at least 1 TEAE", "setting": "[1]; 6 Jun 2023, N=71", "result": 88.7, "unit": "%"}, {"measurement": "patients with at least 1 TRAE", "setting": "[1]; 6 Jun 2023, N=71", "result": 76.1, "unit": "%"}, {"measurement": "SAEs", "setting": "[1]; 6 Jun 2023, N=71, 10", "result": 14.1, "unit": "%"}, {"measurement": "deaths", "setting": "[1]; 14 of 71 participants", "result": 19.7, "unit": "%"}, {"measurement": "SAE Seizure, Grade", "setting": "[1]; Patient 1, onset day 263, Not related", "result": 3}, {"measurement": "SAE Intestinal obstruction, Grade", "setting": "[1]; Patient 2, onset day 85, Not related", "result": 3}, {"measurement": "SAE Muscular weakness, Grade", "setting": "[1]; Patient 3, onset day 165, Not related", "result": 3}, {"measurement": "SAE Back pain, Grade", "setting": "[1]; Patient 3, onset day 196", "result": 2}, {"measurement": "SAE Hepatic hemorrhage, Grade", "setting": "[1]; Patient 4, onset day 55, Not related", "result": 4}, {"measurement": "SAE Hypercalcemia, Grade", "setting": "[1]; Patient 5, onset day 53, Not related", "result": 4}, {"measurement": "SAE Anemia, Grade", "setting": "[1]; Patient 6, Not related", "result": 3}, {"measurement": "SAE Cholangitis, Grade", "setting": "[1]; Patient 6, Not related", "result": 3}, {"measurement": "SAE Thrombocytopenia, Grade", "setting": "[1]; Patient 6, Possibly related, SUSAR", "result": 3}, {"measurement": "SAE Hyperbilirubinemia, Grade", "setting": "[1]; Patient 6, onset day 15, Possibly related, SUSAR", "result": 4}, {"measurement": "SAE Acute respiratory failure, Grade", "setting": "[1]; Patient 6, onset day 19, Unlikely related", "result": 5}, {"measurement": "SAE Upper gastrointestinal hemorrhage, Grade", "setting": "[1]; Patient 7, onset day 36, Not related", "result": 3}, {"measurement": "SAE Spinal cord compression, Grade", "setting": "[1]; Patient 8, onset day 22, Not related", "result": 3}, {"measurement": "SAE Pyrexia, Grade", "setting": "[1]; Patient 9, onset day 27, Not related", "result": 3}, {"measurement": "Grade 5 TRAEs", "setting": "[1]; cut-off 6 Jun 2022", "result": "no Grade 5 TRAEs"}, {"measurement": "patients reporting SAEs", "setting": "[1]; cut-off 6 Jun 2022", "result": "9 of 71 patients"}, {"measurement": "total SAEs", "setting": "[1]; cut-off 6 Jun 2022", "result": 14, "unit": "SAEs"}, {"measurement": "Grade 1 TEAEs", "setting": "[1]; cut-off 6 Jun 2022, N=71", "result": 29.6, "unit": "%"}, {"measurement": "Grade 1 TRAEs", "setting": "[1]; cut-off 6 Jun 2022, N=71", "result": 33.8, "unit": "%"}, {"measurement": "Grade 2 TEAEs", "setting": "[1]; cut-off 6 Jun 2022, N=71", "result": 35.2, "unit": "%"}, {"measurement": "Grade 2 TRAEs", "setting": "[1]; cut-off 6 Jun 2022, N=71", "result": 31.0, "unit": "%"}, {"measurement": "Grade 3 TEAE of anemia", "setting": "[1]; cut-off 6 Jun 2022, N=71", "result": 2, "unit": "patients"}, {"measurement": "Grade 3 TEAEs", "setting": "[1]; cut-off 6 Jun 2022, N=71", "result": 18.3, "unit": "%"}, {"measurement": "Grade 4 TEAEs", "setting": "[1]; cut-off 6 Jun 2022, N=71", "result": 2.8, "unit": "%"}, {"measurement": "Grade 4 TRAE of hyperbilirubinemia", "setting": "[1]; cut-off 6 Jun 2022, N=71", "result": 1}, {"measurement": "Grade 5 TEAE", "setting": "[1]; cut-off 6 Jun 2022, N=71", "result": 1.4, "unit": "%"}, {"measurement": "TEAEs of Grade ≥3", "setting": "[1]; cut-off 6 Jun 2022, N=71", "result": 22.5, "unit": "%"}, {"measurement": "patients with TRAEs of Grade ≥3", "setting": "[1]; cut-off 6 Jun 2022, N=71", "result": 7.0, "unit": "%"}, {"measurement": "patients with at least 1 TEAE", "setting": "[1]; cut-off 6 Jun 2022, N=71", "result": 87.3, "unit": "%"}, {"measurement": "patients with at least 1 TRAE", "setting": "[1]; cut-off 6 Jun 2022, N=71", "result": 71.8, "unit": "%"}, {"measurement": "TEAE leading to discontinuation", "setting": "[1]; four of 71 patients", "result": 5.6, "unit": "%"}, {"measurement": "fraction unbound at 1 μM", "setting": "[2]", "result": 0.124}, {"measurement": "ORR", "setting": "[3]; 7 of 61 response-evaluable, confirmed PR, 95% CI 4.7%, 22.2%", "result": 11.5, "unit": "%"}, {"measurement": "CBR", "setting": "[3]; 30 of 83 evaluable patients, 95% CI 25.9%, 47.4%, cut-off 6 Jun 2023", "result": 36.1, "unit": "%"}, {"measurement": "CBR", "setting": "[3]; Phase 1, ESR1-mutant tumors", "result": 50, "unit": "%"}, {"measurement": "CBR", "setting": "[3]; Phase 1, all patients", "result": 40, "unit": "%"}, {"measurement": "Papp A→B at 1.125 pM", "setting": "[4]; read-out: permeability apical to basolateral", "result": 1.33, "unit": "×10⁻⁶ cm/s"}, {"measurement": "Papp B→A at 1.125 pM", "setting": "[4]; read-out: permeability basolateral to apical", "result": 0.08, "unit": "×10⁻⁶ cm/s"}, {"measurement": "bidirectional permeability", "setting": "[5]", "result": "Similarly low bidirectional permeability"}, {"measurement": "phototoxicity", "setting": "[6]", "result": "not phototoxic"}]}]}
